Article PMC4581723, “Evaluation of In Vitro Activity of the Class I PI3K Inhibitor Buparlisib (BKM120) in Pediatric Bone and Soft Tissue Sarcomas” (PLoS ONE, 2015)
pIC50: −log10 of the molar value. Where two headings read alike, the source gives them in different places. Blank lines part the entries; values can stand above or below the compound they belong to.

How the values were obtained:
[1] = tested on: TC-174; assay: Cell viability assay (MTT), 72 h; format: cell-based; conditions: TC-174 (ES), read-out: GDC-0941 cell viability IC50
[2] = tested on: A4573; assay: Cell viability assay (MTT), 72 h; format: cell-based; conditions: A4573 (ES), read-out: GDC-0941 cell viability IC50
[3] = tested on: KHOS; assay: Cell viability assay (MTT), 72 h; format: cell-based; conditions: KHOS (OS), read-out: GDC-0941 cell viability IC50
[4] = tested on: HOS; assay: Cell viability assay (MTT), 72 h; format: cell-based; conditions: Homo sapiens, HOS (OS), read-out: GDC-0941 cell viability IC50
[5] = tested on: SJSA; assay: Cell viability assay (MTT), 72 h; format: cell-based; conditions: SJSA (OS), read-out: GDC-0941 cell viability IC50
[6] = tested on: RD; assay: Cell viability assay (MTT), 72 h; format: cell-based; conditions: Homo sapiens, RD (RMS), read-out: GDC-0941 cell viability IC50
[7] = tested on: A204; assay: Cell viability assay (MTT), 72 h; format: cell-based; conditions: Homo sapiens, A204 (RMS), read-out: GDC-0941 cell viability IC50
[8] = tested on: osteosarcoma; set-up: method as in PMID 24961790, PMID 24333720; conditions: cited from earlier work
[9] = tested on: osteosarcoma; conditions: cited from earlier work
[10] = tested on: pediatric tumor cell lines; set-up: method as in PMID 23002019; conditions: panel of pediatric tumor cell lines, including sarcomas; read-out: median relative IC50; cited from earlier work
[11] = tested on: chronic lymphocytic leukemia; conditions: cited from earlier work
[12] = tested on: TC-32; assay: Cell viability assay (MTT), 72 h; format: cell-based; conditions: TC-32 cells
[13] = tested on: bone and soft-tissue sarcomas; set-up: method as in PMID 23477833; conditions: combination with the mTOR inhibitor temsirolimus; phase II; patients with bone and soft-tissue sarcomas; cited from earlier work

pIC50 [5]: 6.53
Compound: CS(=O)(=O)N1CCN(Cc2cc3nc(-c4cccc5[nH]ncc45)nc(N4CCOCC4)c3s2)CC1 [GDC-0941, pictilisib]
pIC50 [1]: 6.77
pIC50 [2]: 6.42
pIC50 [3]: 5.92
pIC50 [4]: 6.79
pIC50 [6]: 6.56
pIC50 [7]: 7.57

Compound: Cn1c(=O)n(-c2ccc(C(C)(C)C#N)cc2)c2c3cc(-c4cnc5ccccc5c4)ccc3ncc21 [NVP-BEZ235]
in vitro cellular proliferation [8]: inhibited
tumor growth in vivo [9]: inhibited

Compound: Cc1nc(NC(=O)N2CCC[C@H]2C(N)=O)sc1-c1ccnc(C(C)(C)C(F)(F)F)c1 [NVP-BYL719]
in vitro cellular proliferation [8]: inhibited
tumor growth in vivo [9]: inhibited
tumor growth ([9]; combined with the chemotherapeutic agent ifosfamide): synergistically inhibited tumor growth

Compound: COc1ccc(Cl)c(Nc2nc3ccccc3nc2NS(=O)(=O)c2cccc(NC(=O)C(C)(C)N)c2)c1 [SAR245408]
pIC50 [10]: 4.96

Compound: CC[C@H](Nc1ncnc2[nH]cnc12)c1nc2cccc(F)c2c(=O)n1-c1ccccc1 [idelalisib]
overall response rate ([11]; combined with rituximab): 81%
overall response rate ([11]; single agent): 72%

Compound: CC(=O)Nc1cccc(-n2c(=O)n(C3CC3)c(=O)c3c(Nc4ccc(I)cc4F)n(C)c(=O)c(C)c32)c1 [tramenitib, trametinib]
cytotoxicity as single agent [12]: no tramenitib cytotoxicity was observed

Compound: cixutmumuab: IGF1R antibody, evaluated in combination with the mTOR inhibitor temsirolimus
response rate [13]: 15%
